# According to patent publication US11208675B2, “Reaction accelerating agent” (Kikkoman Corporation, priority 2016, dated 2021):
# Assays:
# [1] = biological target: T1, peroxidase PEO-301 (Toyobo Co., Ltd.) (Armoracia rusticana, UniProt P00433); experiment: Acceleration of hydrogen peroxide detection reaction mediated by peroxidase, using a small amount of peroxidase (Example 2); format: biochemical; settings: 0.013 U/ml peroxidase; for acceleration of hydrogen peroxide detection reaction using peroxidase: as shown in Table 2, compared with not added; for Degree of progression of reaction (%) after 7.5 minutes / Degree of progression of reaction (%) after 10 minutes: ΔA divided by ΔA100%, 0.48% (w/v) compound in second reagent, 37° C.; for Degree of progression of reaction (%) after 7.5 minutes: 7.5 minutes after mixing second reagent with first reagent-B (2.5 minutes after addition of sample); for Degree of progression of reaction (%) after 10 minutes: 10 minutes after mixing second reagent with first reagent-B (5 minutes after addition of sample)
# T1 construct: purchased Toyobo Co., Ltd. PEO-301
# T1 sequence (P00433 31-338): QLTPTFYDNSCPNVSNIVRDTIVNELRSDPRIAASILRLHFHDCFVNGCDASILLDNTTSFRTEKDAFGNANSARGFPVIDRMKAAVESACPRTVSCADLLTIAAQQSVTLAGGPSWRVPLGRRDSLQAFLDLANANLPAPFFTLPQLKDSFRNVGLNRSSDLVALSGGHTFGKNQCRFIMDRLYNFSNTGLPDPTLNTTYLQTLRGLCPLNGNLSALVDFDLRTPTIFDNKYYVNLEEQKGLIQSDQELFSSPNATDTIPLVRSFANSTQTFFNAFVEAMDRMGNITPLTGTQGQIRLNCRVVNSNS
# Method: Next, in this Example, the degree of acceleration of hydrogen peroxide detection reaction by the compound of the present invention was determined using a small amount of peroxidase.
# A reagent for Hydrogen peroxide measurement having the following composition was prepared, and the measurement of hydrogen peroxide was carried out using Bio Majesty JCA-BM1650 (manufactured by JEOL Ltd.).
# (§1) 100 mM MOPS-NaOH buffer solution, pH 6.5
# (§2) 0.00012% (w/v) hydrogen peroxide
# (§3) 30 mM MOPS-NaOH buffer solution, pH 6.5
# (§4) 0.2% (w/v) n-dodecyl-β-D-maltoside (manufactured by Dojindo Laboratories)
# 0.013 U/ml peroxidase PEO-301 (Toyobo Co., Ltd.)
# (§5) 0.023 mM 10-(carboxymethylaminocarbonyl)-3,7-bis(dimethylamino)phenothiazine sodium (DA-67, manufactured by Wako Pure Chemical Industries, Ltd.)
# 0.48% (w/v) of the compound of Comparative Example 2, any one compound of the present invention, or compound-free (Comparative Example 1) ion-exchange water as shown in Table 2
# (§6) 8 μl of the second reagent was added to 96 μl of the first reagent-B, and the mixture was incubated at 37° C. for 5 minutes. Then, 24 μl of the sample was added thereto, and the quantitative reaction of hydrogen peroxide was allowed to progress at 37° C. for 5 minutes. The absorbance (A694 and A751) of the reaction solution for light at wavelengths of 694 nm and 751 nm was measured over time for 10 minutes after the mixing of the second reagent with the first reagent-B to determine the value of subtraction of A751 from A694, i.e., the value of A694/751. Subsequently, ΔA was calculated by subtracting, from A694/751, the value of (104/128) times A694/751 4.8 minutes after the mixing of the second reagent with the first reagent-B. Incidentally, 4.8 minutes after the mixing of the second reagent with the first reagent-B represents the time immediately before the addition of the sample.
# Next, ΔA calculated in this Example was divided by ΔA100% defined in Example 1 to calculate the degree of progression of hydrogen peroxide detection reaction. The degree of progression of hydrogen peroxide detection reaction 7.5 and 10 minutes after the mixing of the second reagent with the first reagent-B (in other words, 2.5 and 5 minutes, respectively, after the addition of the sample) is shown in Table 2.
# [2] = biological target: T1, peroxidase PEO-301 (Toyobo Co., Ltd.); experiment: Hydrogen peroxide detection reaction mediated by peroxidase, completed using an excess of peroxidase (Example 1); format: biochemical; settings: 0.067 U/ml peroxidase, 0.48% (w/v) compound in second reagent, 0.00012% (w/v) hydrogen peroxide, DA-67, pH 6.5, 37° C.; for ΔA9 min: ΔA of A694/751, 9 minutes after mixing second reagent with first reagent-A; for ΔA10 min: ΔA of A694/751, 10 minutes after mixing second reagent with first reagent-A (defined as ΔA100%)
# Method: In this Example the amount of change in absorbance was determined when hydrogen peroxide detection reaction was completed using an excess of peroxidase.
# A reagent for hydrogen peroxide measurement having the following composition (formulation) was prepared, and the measurement of hydrogen peroxide was carried out using Bio Majesty JCA-BM1650 (manufactured by JEOL Ltd.).
# as §1, §2, §3, §4
# 0.067 U/ml peroxidase PEO-301 (Toyobo Co., Ltd.)
# as §5
# 0.48% (w/v) of the compound of Comparative Example 2 (Wako Pure Chemical Industries, Ltd.), any one compound of the present invention (all from Tokyo Chemical Industry Co., Ltd.), or compound-free (Comparative Example 1) ion-exchange water as shown in Table 1
# as §6, with “reagent-A,” for “reagent-B,”, “reagent-A” for “reagent-B”, “reagent-A.” for “reagent-B.”, “sample. ΔA 9 minutes and 10 minutes after the mixing of the second reagent with the first reagent-A (ΔA9 min and ΔA10 min) is shown in Table 1.” for “sample.”
# In other words, it can be understood that the quantitative reaction of hydrogen peroxide was completed in 10 minutes after the mixing of the second reagent with the first reagent-A. Accordingly, ΔA10 min in each Comparative Example or the present invention was defined as ΔA when 100% of the quantitative reaction of hydrogen peroxide progressed under each condition (ΔA100%).
Molecule,acceleration of hydrogen peroxide detection reaction using peroxidase [1],Degree of progression of reaction (%) after 7.5 minutes [1] [%],Degree of progression of reaction (%) after 10 minutes [1] [%],ΔA9 min [2],ΔA10 min [2]
O=C(O)c1cc2ccccc2c(N=Nc2c(O)cc(S(=O)(=O)O)c3ccccc23)c1O [2-hydroxy-1-(2-hydroxy-4-sulfo-1-naphthylazo)-3-naphthoic acid],accelerated,61,90,0.084,0.085
"Oc1ccc(N=Nc2ccccc2)cc1 [4-(Phenylazo)phenol, 4-(phenylazo)phenol]",accelerated,69,90,0.122,0.122
O=C([O-])c1cc(N=Nc2cccc([N+](=O)[O-])c2)ccc1O.[Na+] [Alizarin Yellow GG],accelerated,64,89,0.170,0.170
COc1cc(N=Nc2cccc(S(=O)(=O)[O-])c2)ccc1NC(=O)Nc1ccc(N=Nc2ccc(O)c(C(=O)[O-])c2)cc1.[Na+].[Na+] [Direct Yellow 44],accelerated,64,89,0.228,0.228
"O=C([O-])C1=NN(c2ccc(S(=O)(=O)[O-])cc2)C(=O)C1N=Nc1ccc(S(=O)(=O)[O-])cc1.[Na+].[Na+].[Na+] (stereo not drawn) [Tartrazine, reference compound]",accelerated,57,85,0.344,0.344
Chrome Yellow,accelerated,66,92,0.272,0.272
